One assay concerns the target T1, CCR-3 (Homo sapiens, UniProt P51677).
T1 construct: expressed in transfected cells
T1 sequence (P51677 1-355): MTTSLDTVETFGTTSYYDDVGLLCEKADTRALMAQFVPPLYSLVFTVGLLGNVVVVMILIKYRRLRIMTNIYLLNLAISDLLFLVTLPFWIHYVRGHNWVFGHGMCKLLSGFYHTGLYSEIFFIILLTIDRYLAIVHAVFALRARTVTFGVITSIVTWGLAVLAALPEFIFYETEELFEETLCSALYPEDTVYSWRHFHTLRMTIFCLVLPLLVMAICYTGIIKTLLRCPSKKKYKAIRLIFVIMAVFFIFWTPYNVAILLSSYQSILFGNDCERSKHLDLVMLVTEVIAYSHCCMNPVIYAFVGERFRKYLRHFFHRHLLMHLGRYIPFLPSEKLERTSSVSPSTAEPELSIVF
Description: CCR-3 competition binding SPA (scintillation proximity assay). The settings on record: read-out: CCR-3 Binding Assay (pIC50) (converted). On the procedure: A CCR-3 competition binding SPA (scintillation proximity assay) was used to assess the affinity of novel compounds for CCR-3. Membranes prepared from K562 cells stably expressing CCR-3 (2.51 μg/well) were mixed with 0.25 mg/well wheat-germ agglutinin SPA beads (Amersham) and incubated in binding buffer (HEPES 50 mM, CaCl2 1 mM, MgCl2 5 mM, 0.5% BSA) at 4° C. for 1.5 hr. Following incubation, 20 pM of [^125I) eotaxin (Amersham) and increasing concentrations of compound (1 pM to 30 μM) were added and incubated in a 96 well plate for 2 hr at 22° C. then counted on a Microbeta plate counter. The total assay volume was 100 μl. Competition binding data were analysed by fitting the data with a four parameter logistic equation. Data are presented as the mean pIC50 values (negative logarithm of the concentration of compound which inhibits [^125I] eotaxin binding by 50%) from at least two experiments.

The next assay deals with eosinophil chemotaxis. The experiment in a line: Eosinophil chemotaxis assay (eotaxin-induced). The class given is cell-based, human. The settings on record: functional pKi (fpKi). On the procedure: (b) Eosinophil Chemotaxis Assay.
Compounds were evaluated for their inhibitory effect on eosinophil chemotaxis. Eosinophils were purified from human peripheral blood by standard CD16 cell depletion using a Miltenyi cell separation column and a magnetic Super Macs magnet as previously described (Motegi & Kita, 1998; J. Immunology. 161:4340-6). Cells were re-suspended in RPMI 1640/10% FCS solution and incubated with calcein-AM (Molecular Probes) at 37° C. for 30 mins. Following incubation, the eosinophils were centrifuged at 400 g for 5 min and re-suspended in RPMI/FCS at 2.2 million/ml. Cells. were then incubated in the presence of increasing concentration of compounds (1 pM to 30 μM) at 37° C. for 30 mins. For control responses cells were incubated with RPMI/FCS only. The agonist eotaxin (either a concentration response curve or for the functional inhibition curves an EC80 concentration) was added to the lower chamber of a 96 well chemotaxis plate (5 μm filter: Receptor Technologies). Eosinophils (50 μl of 2 million/ml cells) were added to the top chamber of the filter plate and incubated at 37° C. for 45 mins. Cells remaining on top of the chemotaxis filter were removed and the number of eosinophils which had migrated were quantified by reading the plate on a fluorescent plate reader. Inhibition curves for the effect of compounds on eosinophil chemotaxis were analysed by fitting the data with a four parameter logistic equation. Functional pK1 values (fpK1) were generated using the equation below (Lazareno & Birdsall, 1995. Br. J. Pharmacol 109: 1110-9). [formula] (c) Guinea-pig Ovalbumin Model

In the case of `NS(=O)(=O)c1cccc(CC(=O)NC[C@H]2CN(Cc3ccc(Cl)c(Cl)c3)CCO2)c1` [Example 162], the IC50 on CCR-3 was 12.6 nM. On eosinophil chemotaxis, the “CCR-3 Eosinophil Chemotaxis Assay (fpKi)” value is reported as 8.2.

For the origin of these results see US20050222147A1, “Process for the preparation of morpholine derivatives and intermediates therefore” (priority 2000, published 2005).
